From paper PMC8298439, “Development of a mechanistic model to predict synthetic biotic activity in healthy volunteers and patients with phenylketonuria” (Communications Biology, 2021)

Biological target: T1, PAL (phenylalanine ammonia lyase) of SYNB1618 (Photorhabdus laumondii, UniProt Q7N4T3)
T1 construct: gene plu2234; expressed in cytosol of engineered E. coli Nissle 1917 (SYNB1618, with PheP transporter, dapA deleted); whole-cell assay, LAAD not induced; multimeric
Assay: d5-TCA formation from d5-Phe by whole SYNB1618 cells, LC-MS/MS
Format: cell-based
Conditions: whole-cell product (feedback) inhibition; 20 mM d5-Phe; 0.0–8.0 mM exogenous unlabeled TCA; 60 min

T1 sequence (Q7N4T3 entry or part of it): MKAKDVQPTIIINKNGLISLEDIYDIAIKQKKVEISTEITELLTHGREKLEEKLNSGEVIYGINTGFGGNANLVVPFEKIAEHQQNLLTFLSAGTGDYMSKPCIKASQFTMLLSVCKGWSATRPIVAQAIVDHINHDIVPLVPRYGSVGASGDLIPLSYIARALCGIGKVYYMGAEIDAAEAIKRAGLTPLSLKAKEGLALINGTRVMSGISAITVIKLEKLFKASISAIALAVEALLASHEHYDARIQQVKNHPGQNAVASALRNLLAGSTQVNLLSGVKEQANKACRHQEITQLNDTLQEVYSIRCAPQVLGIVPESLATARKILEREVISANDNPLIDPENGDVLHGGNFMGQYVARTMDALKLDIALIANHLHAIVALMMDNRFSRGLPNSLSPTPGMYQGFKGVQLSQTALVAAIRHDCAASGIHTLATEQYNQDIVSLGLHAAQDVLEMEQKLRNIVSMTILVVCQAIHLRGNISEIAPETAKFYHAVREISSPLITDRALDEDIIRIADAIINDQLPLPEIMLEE

With `O=C(O)/C=C/c1ccccc1` [TCA] as the compound, how does the “% decrease of de novo d5-TCA production” value read?
The value was “up to 60”.
